Tests used:
[1] = system: B16F10 melanoma tumors; test: Murine melanoma tumor model (B16F10 in C57BL/6 mice); format: in vivo; settings: for tumor growth: FIG. 14A
Procedure: Mice were injected with 1×10^5 B16F10 murine melanoma cells murine subcutaneously on the left flank. Once tumors become palpable (approximately 5 days), mice were randomly allocated to receive treatment with either: 20% polyethylene glycol (PEG) in 5% […] (vehicle control for the disclosed HIF-2α stabilizer) and PBS (vehicle control for GM-CSF), 20% PEG and GM-CSF (100 ng per mouse in a 50 μL volume), the disclosed HIF-2α stabilizer (17.5 mg/kg in a 100 μL volume) and PBS, or the disclosed HIF-2α stabilizer and GM-CSF (same doses). The PBS and GM-CSF were administered intratumorally, while the 20% PEG and the disclosed HIF-2α stabilizer were administered intraperitoneally. Mice were treated 3 times per week until tumors reached a size of 20 mm in any dimension (approximately 2.5 weeks), at which point mice were euthanized, in accordance with institutional policy. Tumor diameters were measured 3 times per week with calipers, and tumor volumes were calculated as follows: Tumor volume=0.5×[(large diameter)×(small diameter)^2].
6-8-week-old C57BL/6 mice were injected with 1×10^5 B16F10 murine melanoma cells murine subcutaneously on the left flank. Once tumors become palpable (approximately 5 days), mice were randomly allocated to receive treatment with either: 20% PEG-400 in 5% sucrose (vehicle for disclosed HIF-2α stabilizer) and PBS (vehicle for GM-CSF), 20% PEG-400 and GM-CSF (100 ng per mouse in a 50 μL volume), disclosed HIF-2α stabilizer (17.5 mg/kg mouse weight in a 100 μL volume) and PBS, or the disclosed HIF-2α stabilizer and GM-CSF (same concentrations). The disclosed HIF-2α stabilizer (or the vehicle control) was administered intraperitoneally, while GM-CSF (or the vehicle control) was administered intratumorally. Mice were treated […] 3 times per week until tumors reached a size of 20 mm in any dimension (approximately 2.5 weeks), at which point mice were be euthanized, in accordance with institutional policy. Tumor diameters were measured 3 times per week with calipers, and tumor volumes will be calculated as follows: Tumor volume=0.5×[(large diameter)×(small diameter)^2]. For experiments analyzing the effect of neutralizing sVEGFR-1 in combination with disclosed HIF-2α stabilizer treatment, mice were treated intraperitoneally 3×/week with either disclosed HIF-2α stabilizer or vehicle control, and intratumorally with either 4 μg anti-VEGFR-1 neutralizing antibody (R&D Systems) or 4 μg polyclonal goat IgG isotype control (Santa Cruz Biotechnology) in a 50 μL volume. All protocols were approved by the Ohio State University Animal Care and Use Committee, and mice were treated in accordance with institutional guidelines for animal care.
The ANOVA test was used to compare independent measurements between multiple treatment groups. The data was log-transformed to normalize the variance across groups. P-values were adjusted using the Holm's procedure to conserve the type I error at 0.05 due to the multiple comparisons. For tumor growth data, changes in tumor volume over time were assessed via a longitudinal model. Tumor values were log-transformed, and estimated slopes (changes in tumor volume over time) were calculated with 95% confidence intervals. Estimated differences in tumor volume were calculated by a random-effects regression of the longitudinal data. For all analyses, p≦0.05 was considered statistically significant.
To confirm that the modulation of tumor growth and angiogenesis was due to sVEGFR-1 production in response to the disclosed HIF-2α stabilizer, mice were treated with the disclosed HIF-2α stabilizer in the presence or absence of an sVEGFR-1 neutralizing Ab.
6-8-week-old C57BL/6 mice or SCID mice were injected with 1×10^5 B16F10 murine melanoma cells or 1×10^6 A375 human melanoma cells, respectively, subcutaneously on the left flank. […]

[2] = system: HIF-2α; test: Immunoblot for HIF-2α in murine bone marrow-derived macrophages; format: cell-based; settings: treated for 18 hours, FIG. 11A
Procedure: To generate bone marrow-derived macrophages (BDMs), femoral bone marrow was isolated and progenitor cells were plated in RPMI-1640 supplemented with 10% FBS, 1% PSA, 10 μg/mL of polymyxin B, and 20 ng/mL of recombinant murine M-CSF. Cells were cultured for 5 days with the addition of fresh M-CSF every other day. Differentiated BDM were serum-starved for 2 hours and then treated with 100 ng/mL of murine GM-CSF and/or 25 μM the disclosed HIF-2α stabilizer in RPMI-1640 containing 1% FBS and 10 μg/mL polymixin B. Culture supernatants were collected after 72 hours and assayed for VEGF and sVEGFR-1 content by ELISA (R&D Systems).
In order to confirm the selective upregulation of HIF-2α by the disclosed HIF-2α stabilizer, murine bone marrow-derived macrophages were treated with the disclosed HIF-2α stabilizer for 18 hours, and cells were then lysed and immunoblotted for HIF-1α and HIF-2α.

`O=C(O)CNC(=O)c1ncc(-c2cccc(F)c2)cc1O` [disclosed HIF-2α stabilizer, {[5-(3-Fluorophenyl)-3-hydroxypyridine-2-carbonyl]amino}acetic acid] was tested, and the “tumor growth (tumor volume)” value ([1]; FIG. 3, stabilizer 17 mg/kg I.P., GM-CSF 100 ng per mouse I.T., 3 times per week, vs. PBS control) was “reduces tumor growth”, the “increase in median survival” value ([1]; FIG. 12B, median survival defined as the time to a tumor diameter of 20 mm, 17.5 mg/kg intraperitoneal 3x/week, p=0.023) was 3 days and the “average tumor volumes vs. vehicle controls” value ([1]; day 16 of treatment, GM-CSF 100 ng/mouse intratumoral or stabilizer 17.5 mg/kg intraperitoneal, 3x/week, each p<0.001) was “significantly smaller”. The tumor growth ([1]; mice also treated with the anti-sVEGFR-1 neutralizing antibody, p=0.245) was “no effect on tumor growth”, the tumor growth ([1]; mice treated with an isotype control antibody, p<0.001) was “decreased tumor growth” and the HIF-2α protein [2] was “increase”.

From patent US8865748B2, “Compounds and compositions for stabilizing hypoxia inducible factor-2 alpha as a method for treating cancer” (Akebia Therapeutics Inc., priority 2011, dated 2014)
